Patent US12139617B2, “Polymeric fluorophores, compositions comprising the same, and methods of preparing and using the same” (North Carolina State University, priority 2017, dated 2024)

Tests used:
[1] = Absorption and emission spectra of copolymers F1-F3 and fluorophores D1-D3; type: physicochemical
Excerpt: The target dye-loaded copolymers F1-F3 were then subject to investigations of their spectroscopic properties in both organic solvents and aqueous solution. […] Attaching to the 120-kDa amphiphilic copolymer drastically enhances the water solubility of BODIPY D1 and chlorin D2 without strong perturbation on the spectroscopic properties. Emission band for F1 and F2 in water remains the same as the ones measured in organic solutions, showing minimal dye-dye interaction is involved in aqueous solution of F1 and F2 at μM concentration. […] This negative result may be because of the inappropriate size of the copolymer backbone. Polymer larger in size may be required to encapsulate large hydrophobic fluorophores like the phthalocyanine D3.
All chemicals obtained commercially were used as received unless otherwise noted. Reagent-grade solvents (CH2Cl2, THF, methanol) and HPLC-grade water were used as received. NMR data was measured in a solution of CDCl3 unless otherwise noted. Noncommercial compounds 1, 2, and 4 were prepared following literature procedures. […] Samples were detected with Agilent 1260 infinity refractive index detector. Absorption spectra were measured on Agilent 8453 and Shimadzu UV1800 instruments using dilute (μmolar) solutions of the compound in UV transparent (e.g., quartz) cuvettes versus a solvent blank at room temperature.

[2] = Fluorescence quantum yield of F1-F3 and D1-D3; type: physicochemical
Excerpt: […] […] These comparisons indicate the absence of dye-dye quenching resulting from the aggregation for F1 and F2 in μM aqueous solutions. […] Also, a smaller phthalocyanine skeleton (e.g. with methyl instead of heptyl as peripheral groups) may be encapsulated with the current length of copolymer successfully.

Structure (SMILES)	absorption wavelength [1]	Φf (fluorescence quantum yield) ([2]; CH2Cl2)	Φf (fluorescence quantum yield) ([2]; Toluene)
Cc1cc(C)c(-c2c3nc(c(-c4ccc(C(=O)NN)cc4)c4ccc(cc5nc(cc6ccc2[nH]6)CC5(C)C)[nH]4)C=C3)c(C)c1 [Compound D2, 5-[4-(N-Aminocarbamoyl)phenyl]-10-Mesityl-18,18-dimethylchlorin]	640 nm	0.19	
CCCCCCCc1cc2c(cc1CCCCCCC)-c1nc-2nc2[nH]c(nc3nc(nc4[nH]c(n1)c1cc(CCCCCCC)c(CCCCCCC)cc41)-c1cc(C#Cc4ccc(CC(=O)NN)cc4)ccc1-3)c1cc(CCCCCCC)c(CCCCCCC)cc21 [Compound D3, 2-[4-(N-Aminocarbamoyl)methylphenylethynyl]-9,10,16,17,23,24-hexaheptylphthalocyanine]	700 nm		0.68
